Laboratory results taken from patent US20110028499A1, “PHARMACEUTICAL COMBINATION COMPRISING VITAMIN K” (SHIONOGI & CO., LTD., priority 2005, published 2011).
Values joined by “and” are separate entries in the source; they are usually repeats but may differ in a detail not shown here. Equal entries are not always repeated. “Also recorded” adds a separate entry of the source.

How the values were obtained:
male Sprague-Dawley rats [1] = test: Example 3: PT, APTT and Fbg in rats given Compound (a) and/or vitamin K1 for 3 days; assay type: in vivo; conditions: rat; for APTT / Fbg / PT: mean
Description: (§1) 4-week-old male Sprague-Dawley rats (Crj:CD(SD)IGS, SPF) were purchased from CHARLES RIVER LABORATORIES JAPAN, INC., Hino Breeding Center. […] Administeration was started at. […] Subcutaneous administeration was a 3-day administeration (3 or 200 μg/kg/day) into the back skin with injection syringe attached with a subcutaneous 1⁄4 needle at 1 mL/kg/day. Oral administeration was a 3-day repeated gavage administeration (200 μg/kg/day) with gastric tube for rats at. 4 mL/kg/day. Dosing volume was calculated based on body weight measured on that day. […] Activities of Vitamin K-dependent coagulation factors ([…]) were also) measured with the same blood plasma samples according to Example 2.

[2] = test system: Vitamin K-dependent coagulation factors (F-II, F-VII, F-X, F-IX); test: Example 3: activities of vitamin K-dependent coagulation factors in rats given Compound (a) and/or vitamin K1; assay type: in vivo; conditions: rat, 3 days; for F-II activity / F-IX activity / F-VII activity / F-X activity: mean
Description: as §1

male Sprague-Dawley rats [3] = test: Example 1: PT, APTT and Fbg in rat plasma after 7-day repeated gavage administration; assay type: in vivo; conditions: 300 mg/kg/day gavage, 7 days; for PT and APTT compared with Controls / APTT / Fbg / PT: rat
male Sprague-Dawley rats [4] = test: Example 2: PT, APTT and Fbg in rat plasma after 1, 2 and 3 administrations; assay type: in vivo; conditions: 300 mg/kg/day oral, blood on next day, mean
[5] = test system: extrinsic and intrinsic blood coagulation factors; test: Example 2: activities of extrinsic and intrinsic blood coagulation factors in rat plasma (factor deficient plasma method); assay type: in vivo; conditions: 300 mg/kg/day oral, mean, % of intact rat plasma
male Sprague-Dawley rats [6] = test: Example 4: PT, APTT and Fbg in rats given Compound (a) with or without vitamin K1 for 7 days; assay type: in vivo; conditions: rat; for APTT / Fbg / PT: Compound (a) only 200 mg/kg oral
Description: 4-week-old male Sprague-Dawley rats (Crl:CD(SD), SPF) were purchased from CHARLES RIVER LABORATORIES JAPAN, INC., Hino Breeding Center. […] 0.005% (v/v) solution of vitamin K1 (TOYO Pharma Co., Ltd., 30 mg/3 mL) was prepared just before use with a vehicle of water for injection (Otsuka Pharmaceutical Factory, Inc.). […] Dosing volume was calculated based on body weight, measured on that day. […] The rats were dissected after collecting the blood and a visual inspection of skeletal muscle (soleus muscle) was carried out. After that, the muscle was fixed with 10% neutral buffered formalin, paraffin section was routinely processed, and a histological examination was carried out with an optical microscope after hematoxylin and eosin staining.

[7] = test system: skeletal muscle (soleus muscle); test: Example 4: histological examination of skeletal muscle (soleus muscle); assay type: in vivo; set-up: key: (±): slight; (+): mild; conditions: rat, Compound (a) only 200 mg/kg oral, 7 days; individual animal
[8] = disclosed in WO01/00603; cited from earlier work
human PPARδ (hPPARδ) = human PPARδ (hPPARδ) (Homo sapiens, UniProt Q03181); test: cell-based
[9] = vitamin K1 only 200 μg/kg subcutaneous
[10] = Compound (a) only 300 mg/kg oral
[11] = Compound (a) only 300 mg/kg/day
[12] = individual animal, 300 mg/kg/day

Chain of human PPARδ (hPPARδ) (Q03181 139-441 limits assumed): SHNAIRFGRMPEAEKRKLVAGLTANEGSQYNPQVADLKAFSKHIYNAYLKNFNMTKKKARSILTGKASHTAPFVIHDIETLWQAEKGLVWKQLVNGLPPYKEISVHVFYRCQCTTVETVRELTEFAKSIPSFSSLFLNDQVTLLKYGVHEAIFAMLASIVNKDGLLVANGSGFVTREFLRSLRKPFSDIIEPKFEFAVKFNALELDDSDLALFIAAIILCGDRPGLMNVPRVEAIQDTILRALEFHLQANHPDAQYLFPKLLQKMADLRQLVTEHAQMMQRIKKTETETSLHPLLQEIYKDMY

CC1=C(C/C=C(\C)CCC[C@H](C)CCC[C@H](C)CCCC(C)C)C(=O)c2ccccc2C1=O [Vitamin K1, phylloquinone]
APTT (male Sprague-Dawley rats [1]; [9]): 15.9 s | Fbg (male Sprague-Dawley rats [1]; [9]): 200.3 mg/dL | PT (male Sprague-Dawley rats [1]; [9]): 15.3 s | each item (PT, APTT, Fbg, factor activities) compared with the intact group (male Sprague-Dawley rats [1]; vitamin K1 only 200 μg/kg/day subcutaneous): no significant differences | F-II activity [2, 9]: 92.7% | F-IX activity [2, 9]: 100.2% | F-VII activity [2, 9]: 70.1% | F-X activity [2, 9]: 74.3%

Cc1cc(SCc2sc(-c3ccc(C(F)(F)F)cc3)nc2C)ccc1OCC(=O)O [Compound (a), GW501516]
rats died (male Sprague-Dawley rats [3]; 4 animals in the group): 3 | PT and APTT compared with Controls (male Sprague-Dawley rats [3]): prolonged | APTT (male Sprague-Dawley rats [3]; blood on next day, group mean): 46.4 s | Fbg (male Sprague-Dawley rats [3]; blood on next day, group mean): 173.3 mg/dL | PT (male Sprague-Dawley rats [3]; blood on next day, group mean): 26.9 s | APTT (male Sprague-Dawley rats [3]; individual animal): 46.4 s | Fbg (male Sprague-Dawley rats [3]; individual animal): 173.3 mg/dL | PT (male Sprague-Dawley rats [3]; individual animal): 26.9 s | APTT (male Sprague-Dawley rats [4]; 1 dose): 19.9 s | Fbg (male Sprague-Dawley rats [4]; 1 dose): 200.1 mg/dL | PT (male Sprague-Dawley rats [4]; 1 dose): 14.6 s | APTT (male Sprague-Dawley rats [4]; 2 doses): 25.5 s | Fbg (male Sprague-Dawley rats [4]; 2 doses): 198.8 mg/dL | PT (male Sprague-Dawley rats [4]; 2 doses): 18.3 s | APTT (male Sprague-Dawley rats [4]; 3 doses): 30.7 s | Fbg (male Sprague-Dawley rats [4]; 3 doses): 175.7 mg/dL | PT (male Sprague-Dawley rats [4]; 3 doses): 21.7 s | F-II activity ([5]; 1 dose): 60.8% | F-IX activity ([5]; 1 dose): 62.5% | F-V activity ([5]; 1 dose): 93.3% | F-VII activity ([5]; 1 dose): 57.7% | F-VIII activity ([5]; 1 dose): 99.2% | F-X activity ([5]; 1 dose): 68.3% | F-XI activity ([5]; 1 dose): 84.0% | F-XII activity ([5]; 1 dose): 79.4% | F-II activity ([5]; 2 doses): 24.2% | F-IX activity ([5]; 2 doses): 34.2% | F-V activity ([5]; 2 doses): 90.6% | F-VII activity ([5]; 2 doses): 17.1% | F-VIII activity ([5]; 2 doses): 94.2% | F-X activity ([5]; 2 doses): 44.7% | F-XI activity ([5]; 2 doses): 76.0% | F-XII activity ([5]; 2 doses): 80.7% | F-II activity ([5]; 3 doses): 15.1% | F-IX activity ([5]; 3 doses): 24.6% | F-V activity ([5]; 3 doses): 93.0% | F-VII activity ([5]; 3 doses): 8.8% | F-VIII activity ([5]; 3 doses): 101.2% | F-X activity ([5]; 3 doses): 32.4% | F-XI activity ([5]; 3 doses): 71.0% | F-XII activity ([5]; 3 doses): 78.6% | APTT (male Sprague-Dawley rats [1]; [10]): 30.2 s | Fbg (male Sprague-Dawley rats [1]; [10]): 177.8 mg/dL | PT (male Sprague-Dawley rats [1]; [10]): 23.0 s | PT and APTT compared with the intact group (male Sprague-Dawley rats [1]; [11]): more prolonged | F-II activity [2, 10]: 13.8% | F-IX activity [2, 10]: 27.7% | F-VII activity [2, 10]: 6.3% | F-X activity [2, 10]: 29.9% | activities of vitamin K-dependent coagulation factors compared with the intact group [2, 11]: lowered | APTT (male Sprague-Dawley rats [6]; individual animal): 34.1 s and 67.1 s | Fbg (male Sprague-Dawley rats [6]; individual animal): 199.7 mg/dL and 227.2 mg/dL | PT (male Sprague-Dawley rats [6]; individual animal): 19.1 s and 35.5 s | APTT (male Sprague-Dawley rats [6]; mean): 50.6 s | Fbg (male Sprague-Dawley rats [6]; mean): 213.5 mg/dL | PT (male Sprague-Dawley rats [6]; mean): 27.3 s | prothrombin time and activated partial thromboplastin time (male Sprague-Dawley rats [6]; Compound (a) only 200 mg/kg/day): prolonged | Histological examination Soleus muscle: Necrosis [7]: Necrosis (+); also recorded: Necrosis (±) | elevation of HDL [8]: high elevation of HDL; also recorded: HDL-raising

CCO/N=C/c1c(CSc2ccc(C(C)CC(=O)O)cc2OC)noc1-c1ccc(C(F)(F)F)cc1 (centres unmarked) [Compound (b)]
PT and APTT compared with Controls (male Sprague-Dawley rats [3]): prolonged | APTT (male Sprague-Dawley rats [3]; blood on next day, group mean): 31.3 s | Fbg (male Sprague-Dawley rats [3]; blood on next day, group mean): 204.5 mg/dL | PT (male Sprague-Dawley rats [3]; blood on next day, group mean): 18.6 s | APTT (male Sprague-Dawley rats [3]; [12]): 29.1 s and 28.2 s and 30.7 s and 37.3 s | Fbg (male Sprague-Dawley rats [3]; [12]): 217.9 mg/dL (2×) and 208.9 mg/dL and 173.3 mg/dL | PT (male Sprague-Dawley rats [3]; [12]): 17.4 s and 18.6 s and 16.4 s and 22.0 s | EC50 (human PPARδ (hPPARδ)): 1.3 nM

Cc1c(CSc2ccc([C@@H](C)CC(=O)O)cc2)noc1-c1ccc(C(F)(F)F)cc1 [Compound (c)]
PT and APTT compared with Controls (male Sprague-Dawley rats [3]): prolonged | APTT (male Sprague-Dawley rats [3]; blood on next day, group mean): 43.9 s | Fbg (male Sprague-Dawley rats [3]; blood on next day, group mean): 204.8 mg/dL | PT (male Sprague-Dawley rats [3]; blood on next day, group mean): 24.5 s | APTT (male Sprague-Dawley rats [3]; [12]): 21.9 s and 41.8 s and 68.2 s and 43.8 s | Fbg (male Sprague-Dawley rats [3]; [12]): 201.8 mg/dL and 179.6 mg/dL and 193.8 mg/dL and 243.9 mg/dL | PT (male Sprague-Dawley rats [3]; [12]): 13.6 s and 22.3 s and 35.9 s and 26.0 s | EC50 (human PPARδ (hPPARδ)): 18.9 nM
